From PMC3335862, “Novel Small-Molecule Inhibitors of Hepatitis C Virus Entry Block Viral Spread and Promote Viral Clearance in Cell Culture” (PLoS ONE, 2012)
Where two headings read alike, the source gives them in different places.

Assays:
[1] = system: HCVpp pseudotyped with the GT1a envelope; assay: microbe, parasite or virus in culture; format: cell-based; conditions: Hepatitis C virus, Hep3B cells, 72 h
HCVpp GT 1b = assay: microbe, parasite or virus in culture; format: cell-based; conditions: Hepatitis C virus, GT1B
HCVpp genotype 4 = assay: microbe, parasite or virus in culture; format: cell-based; conditions: Hepatitis C virus; n = 1 strain
[2] = system: HCVpp typed with envelopes representing genotypes 2a, 2b, 3, and 6; assay: microbe, parasite or virus in culture; format: cell-based; conditions: Hepatitis C virus
VSVpp = assay: microbe, parasite or virus in culture; format: cell-based, VSV
GT 1a/2a HCV [3] = assay: HCV viral spread assay (cell-free and cell-cell transmission), flow cytometry; format: cell-based, hepatitis C virus; conditions: 72 h; PRO0371155 1 µM, PA-25 10 µg/mL; DMSO control 18.3, Background 0.31
Text: Figure 3 PRO0371155 inhibits HCV infection by both cell-free and cell-cell modes of transmission. […] TEXT PRINTED IN THE PICTURE: PA-25: 7.54; 19.9; 66.8; 5.75 | DMSO: 4.4; 29.8; 47.6; 18.3 | PRO0371155: 8.1; 25.7; 65.7; 0.48 DOUBTS OF THE COPYIST ABOUT THIS PICTURE: All values are quadrant numbers of flow cytometry plots, given in the order upper left, upper right, lower left, lower right. The picture prints no measure or unit with them. / The print is very small, so 3, 5, 6, 8 and 9 cannot be told apart with certainty in any of the values below. / PA-25: 7.54, 19.9, 66.8 (partly hidden by data points; may be 65.8 or 68.8), 5.75 / DMSO: 4.4, 29.8 (or 29.6), 47.6 (partly hidden by data points; may be 47.8), 18.3 (or 18.8) / PRO0371155: 8.1, 25.7, 65.7 (partly hidden by data points), 0.48 (or 0.46) / The plot headed 'Background' (0.016, 5.44e-3, 99.7, 0.31) is left out because it is a staining control and not a substance.
8.8.7 software (TreeStar).
To determine whether the triazine series can block both routes of infection, we utilized a flow cytometry-based cell-to-cell transmission assay. Infected cells, stained with CellTracker green, were mixed with naïve cells in the presence or absence of entry inhibitors.

HCVpp GT1a Pass. Ctrl. = assay: microbe, parasite or virus in culture; format: cell-based; conditions: Hepatitis C virus, envelope from DMSO passage control culture
HCVpp T388A = format: cell-based, hepatitis C virus
HCVpp V719G = format: cell-based, hepatitis C virus; conditions: GT1a background
HCVpp GT1a-V719L = format: cell-based, hepatitis C virus; conditions: GT1a background
HCVpp GT 1a-V719I = format: cell-based, hepatitis C virus
HCVpp GT 1a V719A = format: cell-based, hepatitis C virus
HCVpp GT 1b-V719L = format: cell-based, hepatitis C virus; conditions: Genotype 1b background
HCVpp GT 1b-V719I = format: cell-based, hepatitis C virus; conditions: Genotype 1b background
HCVpp GT 1b V719A = format: cell-based, hepatitis C virus; conditions: Genotype 1b background
[4] = system: Hep3B, Huh-7, 293T, HeLa, Daudi, Ramos, Jurkat, primary hepatocyte; conditions: CellTiter Glo assay; data not shown except Hep3B
in vitro = conditions: human
GT 1a/2a HCV [5] = assay: HCV cell culture infection assay (Renilla luciferase), GT 1a/2a; conditions: Hepatitis C virus, GT1A, read-out: HCV Cell Culture EC50 GT 1a/2a
GT 1b/2a HCV = assay: HCV cell culture infection assay (Renilla luciferase), GT 1b/2a; conditions: Hepatitis C virus, GT1B, read-out: HCV Cell Culture EC50 GT 1b/2a
GT 1a/2a HCV [6] = assay: Quantification of HCV RNA by qRT-PCR in long term treated cultures
GT 1a/2a HCV [7] = system: GT 1a/2a HCV
[8] = culture initially 33% HCV+, 1 µM

SMILES: CS(=O)(=O)N1CCC(Nc2nc(Nc3cccc(C(F)(F)F)c3)nc(OCC(F)(F)F)n2)CC1 [PRO0371155]
- EC50 ([1]; median across panel of GT 1a envelopes from HCV+ patient sera (n = strains), read-out: HCVpp Median EC50 GT 1a): 9 nM
- EC50 ([1]; prototypical/parent GT 1a envelope, read-out: GT1a (EC50), HCVpp): 2 nM
- EC50 (HCVpp GT 1b; Hep3B, parent GT 1b envelope, read-out: EC50, HCVpp GT 1b): 317 nM
- EC50 (HCVpp GT 1b; median across panel of GT 1b envelopes from HCV+ patient sera (n = strains), Hep3B cells, 72 h, read-out: HCVpp Median EC50 GT 1b): > 825 nM
- EC50 (HCVpp genotype 4): 190 nM
- EC50 [2]: > 1000 nM
- inhibition of entry of pseudoviral particles with envelope glycoproteins from irrelevant viruses including VSV (VSVpp): did not inhibit
- EC50 (VSVpp; Vesicular stomatitis virus, read-out: VSVpp EC50): 39000 nM
- newly infected HCV+ cells (lower right quadrant) (GT 1a/2a HCV [3]): 0.48%
- EC50 (HCVpp GT1a Pass. Ctrl.): 4 nM
- influence of T388A on susceptibility in the HCVpp assay (HCVpp T388A): did not have any influence
- EC50 (HCVpp T388A; GT1a background): 2 nM
- EC50 (HCVpp V719G): > 1000 nM
- loss in susceptibility, V719G vs GT1a in the HCVpp assay (HCVpp V719G): > 500 fold
- reduction in activity vs parent GT1a envelope, V719L (HCVpp GT1a-V719L): 500 fold
- reduction in potency vs parent GT1a envelope, V719I (HCVpp GT 1a-V719I; GT1a background): 34 fold
- EC50 (HCVpp GT 1a-V719I; Genotype 1a background): 67 nM
- fold change of EC50 vs parent GT 1a, V719I (HCVpp GT 1a-V719I; Genotype 1a background): 34 ×
- reduction in potency vs parent GT1a envelope, V719A (HCVpp GT 1a V719A; GT1a background): 46 fold
- EC50 (HCVpp GT 1a V719A; Genotype 1a background): 92 nM
- fold change of EC50 vs parent GT 1a, V719A (HCVpp GT 1a V719A; Genotype 1a background): 46 ×
- EC50 (HCVpp GT 1b-V719L): > 1000 nM
- fold change of EC50 vs parent GT 1b, V719L (HCVpp GT 1b-V719L): 3 ×
- EC50 (HCVpp GT 1b-V719I): > 1000 nM
- fold change of EC50 vs parent GT 1b, V719I (HCVpp GT 1b-V719I): 3 ×
- EC50 (HCVpp GT 1b V719A): 273 nM
- fold change of EC50 vs parent GT 1b, V719A (HCVpp GT 1b V719A): 0.9 ×
- cytotoxicity against a panel of cell lines and primary cells [4]: minimal cytotoxicity
- CC50 (in vitro): 31000 nM
- EC50 (GT 1a/2a HCV [5]): 9 nM
- EC50 (GT 1b/2a HCV): > 1000 nM
- time HCV RNA maintained at background levels after removal of compound (GT 1a/2a HCV [6]): > 50 days
- HCV RNA levels (GT 1a/2a HCV [6]; after 100 days in the presence of compound, 1 µM, limit of quantification): < 0.5 copies/cell
- change in percentage of HCV+ cells (NS3 staining) (GT 1a/2a HCV [7]; 20% HCV+ at baseline, PRO0371155 1 µM, IFN-alpha 10 IU/mL): more gradual decline
- day of viral breakthrough in the presence of compound (GT 1a/2a HCV [7]; [8]): 21 days
- time to loss of viral suppression and emergence of drug resistance (GT 1a/2a HCV [7]; [8]): ~3 weeks
- fate of infected cells on long term treatment (GT 1a/2a HCV [7]; culture initially 90% HCV+, 1 µM): eradicated
- viral rebound during washout period (GT 1a/2a HCV [7]; drug released at day 116, passaged additional 30 days, 90% HCV+ culture): not observed
